Experiments:
Aβ plaque = system: Aβ plaque; parameters: method as in PMID 27149904; conditions: early study; cited from earlier work
CYP 2D6 = CYP 2D6 (Homo sapiens, UniProt P10635); experiment: CYP inhibition; format: in vitro ADME
hERG = hERG (Homo sapiens, UniProt Q12809); experiment: hERG assay
primary cortical neurons = experiment: Oxytosis; format: cell-based; conditions: Primary cortical neuron; read-out: Half-maximal effective concentration, Oxytosis
Method: The various phenotypic screening assays were conducted as previously described. Briefly, HT-22, primary cortical neurons, or MC65 was plated and exposed to the different environmental stresses. Cells were treated with varying concentrations of CAD-31, and half-maximal effective concentration (EC50) was determined on the basis of cell viability.
• An assay that mimics the dramatic loss of neurotrophic support in the old brain is the trophic factor withdrawal assay. Primary embryonic day 18 cortical cells are plated at low density in serum-free medium. At low density, the cells die within 2 days; they can be rescued by combinations of neurotrophic growth factors, but not by one alone ([19] and unpublished data). […] BDNF is a molecule that is also involved in promoting memory and neurogenesis and is reduced in the brain with age and in AD, as well as in other neurological disorders. BDNF has long been considered a drug target for AD [23]. […] A reduction in GSH is a common denominator of old age and essentially all chronic central nervous system (CNS) diseases. J147 and CAD-31 both effectively reduce oxidative stress, with EC50 of 6 nM and 20 nM, respectively. • CAD-31 also prevents loss of energy metabolism that leads to neuron cell death in an in vitro ischemia model. […]

[1] = system: human neural precursor cells (NPCs); parameters: method as in PMID 27149904; conditions: compared with J147; cited from earlier work
APPswe/PS1∆E9 mice [2] = experiment: Fear-conditioning assay; format: in vivo; conditions: AD mice fed 200 ppm in chow for 3 months from 10 months of age; day 2
Method: (§1) The APPswe/PS1∆E9-transgenic mice were characterized previously. Line 85 mice carry two transgenes, the mouse/human chimeric APPswe, linked to Swedish familial AD and human PS1∆E9. At 10 months of age, female transgenic mice were fed a defined diet (Harlan Teklad; Envigo, Indianapolis, IN, USA) with and without CAD-31 (200 ppm, approximately 10 mg/kg/day). Treatment continued for 3 months, followed by behavior testing and tissue harvesting.
Fear conditioning to either a cue or a context represents a form of associative learning. The readout that is measured in contextual and cued fear conditioning is a freezing response that occurs following the pairing of an unconditioned stimulus, such as a foot shock, with a conditioned stimulus, such as a particular context or cue (tone). The mouse will freeze if it remembers and associates that environment with the aversive stimulus. The hippocampus and the amygdala are required for fear memory, where the hippocampus is involved in the formation and retrieval of context fear associations and the amygdala is involved in conditioning and recall of associations to contextual and discrete cues. […] On day 2, the time spent freezing is measured over the entire time in the chamber. […] The percentage of time spent freezing by each mouse is averaged per group, and then groups can be compared and p values calculated to determine statistical significance.

Caco 2 = Caco 2 Transport; format: in vitro ADME
Aβ1–42 = Aβ1–42 (Homo sapiens, UniProt P05067); experiment: Thioflavin S Aβ1–42 aggregation assay; format: biochemical; conditions: data not shown
Aβ1–42, sequence (P05067 672-713 limits assumed): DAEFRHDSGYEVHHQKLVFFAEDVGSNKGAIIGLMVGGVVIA

APPswe/PS1∆E9 mice [3] = experiment: Elevated plus maze; format: in vivo; conditions: AD mice fed 200 ppm in chow for 3 months from 10 months of age
Method: as §1
The elevated plus maze is used to analyze the anxiety response of mice. This test relies upon the tendency of mice to have a fear of heights and to navigate toward dark, enclosed spaces and remain there. Our maze is made of gray plastic and consists of four arms (two open without walls and two enclosed by 15.25-cm-high walls) that are 30 cm long and 5 cm wide in the shape of a plus sign. A video tracking system (EthoVision; Noldus Information Technology) is used to automatically collect behavioral data. Mice are habituated to the room 24 h before testing. Mice are also habituated to the maze for 2 minutes before testing by placing them in the center of the maze and blocking entry to the arms. Mice were tested in the maze for a 5-minute period. The anxiety of mice was measured by comparing the time spent in the open arms with time spent in the closed arms. Statistics were computed using GraphPad InStat software.

Pharmacokinetics in rats = format: in vivo, Sprague-Dawley rats
Method: Sprague-Dawley rats had free access to food and water. CAD-31 was given by gavage to rats at 20 mg/kg in corn oil and intravenously in 15% HS 15/PBS. Whole-blood samples were collected from the jugular vein at every time point and brain collected after 20-ml saline perfusion. CAD-31 was extracted with acetonitrile and compared with standards on a TSQ Quantiva™ Triple Quadrupole Mass Spectrometer (Thermo Scientific, Waltham, MA, USA). For the mouse feeding studies, mice had free access to food containing 200 ppm CAD-31. Blood was collected by heart puncture, and the brain concentration was determined as with rats.

hERG, sequence (Q12809 whole entry): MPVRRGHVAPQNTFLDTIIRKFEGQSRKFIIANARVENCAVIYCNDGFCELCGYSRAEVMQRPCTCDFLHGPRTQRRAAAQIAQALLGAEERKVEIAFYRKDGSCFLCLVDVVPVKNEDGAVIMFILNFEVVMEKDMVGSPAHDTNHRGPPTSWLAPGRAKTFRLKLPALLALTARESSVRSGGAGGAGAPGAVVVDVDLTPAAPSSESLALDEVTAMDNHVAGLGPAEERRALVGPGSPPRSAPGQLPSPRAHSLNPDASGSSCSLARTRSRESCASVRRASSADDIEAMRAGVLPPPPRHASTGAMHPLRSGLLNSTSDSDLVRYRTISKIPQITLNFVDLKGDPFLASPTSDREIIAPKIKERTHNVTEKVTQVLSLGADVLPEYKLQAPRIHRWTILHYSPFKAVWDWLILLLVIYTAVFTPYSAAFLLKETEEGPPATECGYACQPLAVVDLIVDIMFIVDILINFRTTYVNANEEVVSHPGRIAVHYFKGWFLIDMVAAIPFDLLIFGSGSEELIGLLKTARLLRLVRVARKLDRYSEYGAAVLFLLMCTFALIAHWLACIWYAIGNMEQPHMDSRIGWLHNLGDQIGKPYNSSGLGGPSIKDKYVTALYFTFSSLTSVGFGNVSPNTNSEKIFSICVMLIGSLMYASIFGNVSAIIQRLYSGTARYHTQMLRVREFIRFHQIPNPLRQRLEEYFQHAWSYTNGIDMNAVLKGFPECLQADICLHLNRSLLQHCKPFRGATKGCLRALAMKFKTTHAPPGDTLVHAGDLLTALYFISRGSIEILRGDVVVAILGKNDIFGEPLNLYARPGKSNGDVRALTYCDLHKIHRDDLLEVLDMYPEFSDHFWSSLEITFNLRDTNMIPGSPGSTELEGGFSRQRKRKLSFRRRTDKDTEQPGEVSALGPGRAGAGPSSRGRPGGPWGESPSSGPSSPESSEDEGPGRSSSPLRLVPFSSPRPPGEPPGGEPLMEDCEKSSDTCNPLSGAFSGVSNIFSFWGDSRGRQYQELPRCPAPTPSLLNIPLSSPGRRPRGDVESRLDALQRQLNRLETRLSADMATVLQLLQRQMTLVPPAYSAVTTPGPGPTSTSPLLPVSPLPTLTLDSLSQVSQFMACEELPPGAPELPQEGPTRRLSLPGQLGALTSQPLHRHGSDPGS
CYP 2D6, sequence (P10635 whole entry): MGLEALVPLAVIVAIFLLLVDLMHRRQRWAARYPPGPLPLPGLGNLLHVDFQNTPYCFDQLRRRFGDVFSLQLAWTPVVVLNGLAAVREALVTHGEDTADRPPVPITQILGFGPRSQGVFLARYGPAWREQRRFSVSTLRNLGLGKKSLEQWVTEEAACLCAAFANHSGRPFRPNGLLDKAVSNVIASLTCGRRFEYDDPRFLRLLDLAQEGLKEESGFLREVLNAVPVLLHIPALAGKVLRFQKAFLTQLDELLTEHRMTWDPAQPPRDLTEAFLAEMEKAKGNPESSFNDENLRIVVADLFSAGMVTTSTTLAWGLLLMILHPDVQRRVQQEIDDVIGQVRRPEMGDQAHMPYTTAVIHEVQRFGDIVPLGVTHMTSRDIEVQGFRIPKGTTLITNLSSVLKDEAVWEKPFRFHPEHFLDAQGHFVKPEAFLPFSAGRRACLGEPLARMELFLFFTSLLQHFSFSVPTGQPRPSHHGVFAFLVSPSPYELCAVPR

For `Cc1ccc(N(/N=C/c2cccc(OC(F)(F)F)c2)C(=O)C(F)(F)F)c(C)c1` [CAD-31], the “Aβ plaque density or size” value (Aβ plaque) is listed as “no effect on Aβ plaque density or size”, the EC50 at 10 µM (CYP 2D6) is listed as over 10 µM and the “activity in the hERG assay” value (hERG; 10 μM) is listed as “showed no sign of acute toxicity or activity”. For the same compound, the EC50 at 10 µM (hERG; human) was over 10 µM, the EC50 (primary cortical neurons) was 20 nM and the neurogenic activity [1] was “enhanced neurogenic activity over J147”. The “time freezing in response to the context” value (APPswe/PS1∆E9 mice [2]) was “more time freezing in response to the context”, the EC50 at 10 µM (Ames test) was over 10 µM and the “activity in the Ames test” value (Ames test; 10 μM) was “showed no sign of acute toxicity or activity”. The “Caco 2 Transport” value (Caco 2) was “High”, the “binding to and direct inhibition of Aβ1–42 aggregation” value (Aβ1–42) was “Neither J147 nor CAD-31 binds to and directly inhibits Aβ1–42 aggregation” and the “time spent on the open arm (disinhibition phenotype)” value (APPswe/PS1∆E9 mice [3]) was “completely rescued to age-matched WT levels”. For the same compound, the “PO Max Brain, concentration” value (Pharmacokinetics in rats; 20 mg/kg by gavage in corn oil) was 3.0 µM, the “PO Max Brain, time” value (Pharmacokinetics in rats; 20 mg/kg by gavage in corn oil) was 8 h and the “PO Max Plasma, concentration” value (Pharmacokinetics in rats; 20 mg/kg by gavage in corn oil) was 1.7 µM. The “PO Max Plasma, time” value (Pharmacokinetics in rats; 20 mg/kg by gavage in corn oil) was 8 h, the Kp at 8 h (Pharmacokinetics in rats; Sprague-Dawley, rat, brain and plasma, po, 20 mg/kg by gavage, at 8 h, read-out: brain-to-plasma ratio) was 2.8 and the half-life (Pharmacokinetics in rats; Sprague-Dawley, rat, in vivo, 20 mg/kg) was 258 min. It also gave a bioavailability (Pharmacokinetics in rats; Sprague-Dawley, rat, plasma, oral, 20 mg/kg) of 31%.

Source: article PMC5513091, “A novel Alzheimer’s disease drug candidate targeting inflammation and fatty acid metabolism” (Alzheimer's Research & Therapy, 2017)
